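Method: 48-hour compound exposure of cells in 96-well plates, five concentrations, linear interpolation of endpoints. GI50 marks 50% less growth.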 Activity calls are given as the source filed them. Rule as the data show it: active = GI50 up to about 1.1 µM and inactive = higher. Residues, ends and D or L forms follow the SMILES beside them.
Experiments:
Test in all cases: DTP human tumour cell line panel, 48 h
SNB-78 = tested on: SNB-78
M19-MEL = tested on: M19-MEL
KM-20L2 = tested on: KM-20L2
LXFL 529 = tested on: LXFL 529
DLD-1 = tested on: DLD-1
XF498 = tested on: XF498
BT-549 = tested on: BT-549
HOP-18 = tested on: HOP-18

For `Cc1ccc(S(=O)(=O)N/N=C(\c2nc3ccc([N+](=O)[O-])cc3[nH]c2=O)C(O)c2ccc([N+](=O)[O-])cc2)cc1` (stereo not drawn), the GI50 (SNB-78) was > 100 µM (inactive), the GI50 (M19-MEL) was > 100 µM (inactive) and the GI50 (KM-20L2) was 46.2 µM (inactive). For the same compound, the GI50 (LXFL 529) was 46 µM (inactive), the GI50 (DLD-1) was 57.1 µM (inactive) and the GI50 (XF498) was > 100 µM (inactive).

With `COC(=O)c1cc(C)ccc1C1CN=NC12Cc1c(C)cc(C)cc1C2=O` (stereo not drawn) the GI50 (BT-549) was 24.7 µM (inactive).

With `COC1=CC(=O)c2ccc(C(C)C)cc2C1(C)C1=NC(C)(C)CO1` (stereo not drawn) the GI50 (M19-MEL) was > 100 µM (inactive), the GI50 (KM-20L2) was > 100 µM (inactive) and the GI50 (HOP-18) was > 100 µM (inactive). For the same compound, the GI50 (LXFL 529) was > 100 µM (inactive), the GI50 (DLD-1) was > 100 µM (inactive) and the GI50 (XF498) was > 100 µM (inactive).

In the case of `COc1ccc(Oc2nc3ccc(C(F)(F)F)cc3nc2-c2ccccc2)cc1`, the GI50 (BT-549) is reported as 0.361 µM (active).

`O=C(Cn1c(C(=O)/C=C/c2ccco2)nc2ccccc21)c1ccc(Cl)cc1` was tested, and the GI50 (BT-549) was 14.9 µM (inactive).

With `Cc1noc(NS(=O)(=O)c2ccc(NC(=O)c3ccc4nc5ccccc5c(Nc5ccc(S(=O)(=O)Nc6onc(C)c6C)cc5)c4c3)cc2)c1C` the GI50 (BT-549) was 24.8 µM (inactive).

In the case of `O=C1C2=C(C(=O)c3c(O)ccc(O)c31)[C@@H](O)[C@@H](O)[C@@H](O)C2`, the GI50 (BT-549) is reported as 1.43 µM (inactive).

`CN1C(=O)CC(c2cccc(C3CC(=O)N(C)C3=O)n2)C1=O` (stereo not drawn) was tested, and the GI50 (SNB-78) was > 100 µM (inactive), the GI50 (M19-MEL) was > 100 µM (inactive) and the GI50 (KM-20L2) was > 100 µM (inactive). For the same compound, the GI50 (HOP-18) was > 100 µM (inactive), the GI50 (LXFL 529) was > 100 µM (inactive) and the GI50 (DLD-1) was > 100 µM (inactive).

`COc1ccc(/C=C/C(=O)c2c(-c3ccccc3)nn(C)c(=O)c2N2CC2C)cc1` (stereo not drawn) was tested, and the GI50 (SNB-78) was 30.1 µM (inactive), the GI50 (M19-MEL) was 49.9 µM (inactive) and the GI50 (KM-20L2) was 23.9 µM (inactive). The GI50 (HOP-18) was 27.5 µM (inactive), the GI50 (LXFL 529) was 25.1 µM (inactive) and the GI50 (DLD-1) was 26.1 µM (inactive).

For `CS[C@]12[C@@H]3C(=O)N(C)C(=O)[C@@H]3[C@](C)(C(=O)N1C)C(=O)N2c1ccccc1`, the GI50 (BT-549) was > 100 µM (inactive).

In the case of `CCOC(CCNCC(OCC)OCC)OCC`, the GI50 (BT-549) is reported as > 10 µM (inactive).

With `[O-][Cl+3]([O-])([O-])[O-].c1ccc(-c2csc3c4ccccc4c4ccccc4[n+]23)cc1` the GI50 (SNB-78) was 2.08 µM (inactive), the GI50 (M19-MEL) was 1.61 µM (inactive) and the GI50 (KM-20L2) was 5.53 µM (inactive). For the same compound, the GI50 (HOP-18) was 14.3 µM (inactive), the GI50 (LXFL 529) was 1.84 µM (inactive) and the GI50 (DLD-1) was 5.58 µM (inactive). For the same compound, the GI50 (XF498) was 1.79 µM (inactive).

With `Cc1cc2c(cc1C)C(=O)c1ncccc1C2=O` the GI50 (BT-549) was 40.9 µM (inactive).

With `N#C/C(=C/NC(=S)Nc1ccc(S(N)(=O)=O)cc1)C(N)=O` the GI50 (BT-549) was > 100 µM (inactive).

For `CCOC(=O)CCC(NC(=O)c1ccc(CNc2nc3cc(N)cc(N)c3nc2-c2ccccc2)cc1)C(=O)OCC` (stereo not drawn), the GI50 (BT-549) was > 100 µM (inactive).

For `CC(=O)NNc1nc(C)c(C(/C=C/c2ccc(/C=C/C(=N\NC(=O)c3ccncc3)c3sc(NNC(C)=O)nc3C)cc2)=N/NC(=O)c2ccncc2)s1`, the GI50 (SNB-78) was > 100 µM (inactive), the GI50 (M19-MEL) was > 100 µM (inactive) and the GI50 (KM-20L2) was > 100 µM (inactive). For the same compound, the GI50 (LXFL 529) was > 100 µM (inactive) and the GI50 (DLD-1) was > 100 µM (inactive).

In the case of `Cc1nc2ccc(S(=O)(=O)Nc3ccccc3Cl)cc2c(=O)n1NC(=O)CNc1ccccc1Cl`, the GI50 (BT-549) is reported as > 100 µM (inactive).

With `CCOC(=O)C#Cc1ccccc1` the GI50 (BT-549) was 11.6 µM (inactive).

In the case of `CC(=O)Nc1[nH]c(=O)[nH]c(=O)c1N(C(C)=O)C(C)=O`, the GI50 (SNB-78) is reported as > 100 µM (inactive), the GI50 (M19-MEL) is reported as > 100 µM (inactive) and the GI50 (KM-20L2) is reported as > 100 µM (inactive). For the same compound, the GI50 (LXFL 529) was > 100 µM (inactive), the GI50 (DLD-1) was > 100 µM (inactive) and the GI50 (XF498) was > 100 µM (inactive).

For `Cc1ccc(S(=O)(=O)[N-]C2C(=O)c3ccccc3C(=O)C2[n+]2cccc(C(N)=O)c2)cc1` (stereo not drawn), the GI50 (BT-549) was > 100 µM (inactive).

With `O=C1CNNC(CSc2nc3ccc(I)cc3c(=O)n2Cc2ccccc2)=N1` the GI50 (BT-549) was 27.5 µM (inactive).

With `O=c1n(-c2ccccc2)c(=O)n2n1C1Cc3ccccc3C12` (stereo not drawn) the GI50 (BT-549) was > 100 µM (inactive).

For `S=C1N=C2C(=N1)n1c3c(c4ccccc41)CCCC23` (stereo not drawn), the GI50 (BT-549) was 59.2 µM (inactive).

With `Cc1nc2c(=O)n3c4c(cccc4c2o1)CCC3` the GI50 (BT-549) was > 100 µM (inactive).

In the case of `O=C1c2ccccc2C(=O)c2cc3c(cc21)C[S+]([O-])C3`, the GI50 (M19-MEL) is reported as > 100 µM (inactive), the GI50 (KM-20L2) is reported as > 100 µM (inactive) and the GI50 (HOP-18) is reported as > 100 µM (inactive). For the same compound, the GI50 (LXFL 529) was > 100 µM (inactive) and the GI50 (DLD-1) was > 100 µM (inactive).

For `O=c1oc2cc(O)ccc2c(O)c1C(c1ccccc1F)c1c(O)c2ccc(O)cc2oc1=O`, the GI50 (BT-549) was 11.3 µM (inactive).

For `COC(=O)C(Cc1ccccc1)NP(=O)(O)OCC1OC(n2ccc(N)nc2=O)C(O)C1O` (stereo not drawn), the GI50 (BT-549) was > 100 µM (inactive).

For `C=C(C)C1CC=C(C)C(O)([C@@]2(O)C[C@H](C(=C)C)CC=C2C)C1` (stereo partly drawn), the GI50 (SNB-78) was 30.6 µM (inactive), the GI50 (M19-MEL) was 11.5 µM (inactive) and the GI50 (LXFL 529) was 26.6 µM (inactive). For the same compound, the GI50 (DLD-1) was 30.3 µM (inactive) and the GI50 (XF498) was 14 µM (inactive).

In the case of `C=C(C)C1C/C=C(/C)CCCC2(CCC3=C(CC(C(=C)C)C/C=C(/C)CCC3)O2)C(=O)C1` (stereo not drawn), the GI50 (SNB-78) is reported as > 100 µM (inactive), the GI50 (M19-MEL) is reported as > 100 µM (inactive) and the GI50 (KM-20L2) is reported as > 100 µM (inactive). For the same compound, the GI50 (HOP-18) was > 100 µM (inactive), the GI50 (LXFL 529) was > 100 µM (inactive) and the GI50 (DLD-1) was > 100 µM (inactive). For the same compound, the GI50 (XF498) was > 100 µM (inactive).

`C=C(C)[C@@H]1CC[C@]2(C(=O)O)CC[C@]3(C)[C@H](CCC4[C@@]5(C)CC[C@H](C(=O)/C=C/c6ccc(O)c(O)c6)C(C)(C)[C@@H]5CC[C@]43C)[C@@H]12` (stereo partly drawn) was tested, and the GI50 (BT-549) was 12 µM (inactive).

`CC(CC(C)[C@H]1CCC2[C@H]3C(CC(=O)[C@@]21C)[C@@]1(C)CCC(O)C[C@H]1C[C@@H]3O)C(=O)O` (stereo partly drawn) was tested, and the GI50 (BT-549) was > 100 µM (inactive).

For `C=C1C(=O)OC2CC3(C)CCCC(C)C3=CC12` (stereo not drawn), the GI50 (BT-549) was 4.65 µM (inactive).

In the case of `CCC(C)C(NC(=O)C1CCCN1)C(=O)NC(C(=O)NCC(=O)NC(CC(N)=O)C(=O)NC(CC(C)C)C(=O)NC(CC(C)C)C(=O)NC(CCCCN)C(N)=O)C(C)C` (stereo not drawn) (H-PIVGNLLK-NH2; configuration not given here), the GI50 (BT-549) is reported as > 75 µM (inactive).

`OC(CCN1CCCCC1)(c1ccccc1)c1ccccc1` [PRIDINOL] was tested, and the GI50 (BT-549) was > 100 µM (inactive).

Reference: ChEMBL document CHEMBL1201862, “PubChem BioAssay data set” (2004)
